Source: patent US8895806B2, “Fucosyl transferase gene” (priority 1999, dated 2014)
Where two headings read alike, the source gives them in different places.

What was measured:
Assay type in all cases: biochemical, mung bean
[1] = biological target: recombinant GlcNAc-α1,3-fucosyl transferase (Vigna radiata, UniProt Q9ST51); experiment: Assay for GlcNAc-α1,3-fucosyl transferase activity (GnGn peptide and GDP-L-[U-14C]-fucose); details: for Rel. Activity: acceptor substrate, standard test conditions; for Km: acceptor or donor substrate, unit inferred, read-out: apparent Km-values
[2] = test system: GlcNAc-α1,3-fucosyl transferase activity; experiment: Enzyme activity of insect cells transfected with the α1,3-fucosyl transferase gene versus negative control
Description: The encoding region of the assumed GlcNAc-α1,3-fucosyl transferase including cytoplasmatic and transmembrane region was amplified with the forward primer 5′-[…]-3′ (SEQ ID NO: 16) and reverse primer 5′-[…]-3′ (SEQ ID NO: 17) by means of the Expand High Fidelity PCR System of Boehringer Mannheim. The PCR product was double-digested with PstI and BamHI and subcloned in alkaline phosphatase-treated baculovirus transfer vector pVL1393 which previously had been digested with PstI and BamHI. To ensure a homologous recombination, the transfer vector was co-transfected with Baculo Gold viral DNA (PharMingen, Sand Diego, Calif.) in Sf9 insect cells in IPL-41 Medium with lipofectin. After an incubation of 5 days at 27° C., various volumes of the supernatant with the recombinant virus were used for infecting the Sf21 insect cells. After an incubation of 4 days at 27° C. in IPL-41 Medium with 5% FCS, the […] cells were harvested and washed 2× with phosphate-buffered saline solution. The cells were resuspended in 25 mM Tris HCl buffer, pH 7.4, with 2% Triton X-100 and broken up by sonication on ice.
The homogenate and the cell supernatant were assayed for GlcNAc-α1,3-fucosyl transferase. Blind samples were carried out with recombinant baculovirus which codes for the tobacco-GlcNAc-transferase I (Strasser et al., 1999, Glycobiology, in the process of printing). […]

[3] = substrate: C[C@@H]1O[C@H](OP(=O)(O)OP(=O)(O)OC[C@H]2O[C@@H](n3cnc4c(=O)[nH]c(N)nc43)[C@H](O)[C@@H]2O)[C@@H](O)[C@H](O)[C@@H]1O; experiment: Assay for GlcNAc-α1,3-fucosyl transferase activity (GnGn peptide and GDP-L-[U-14C]-fucose); details: other: acceptor or donor substrate, unit inferred; pH 7.4; 27.0 °C
[4] = additive conc. 10 mM, recombinant transferase

Q: How did the “Relative Activity (Acceptor: GnGn-peptide)” value (“Relative Activity” below) ([1]; additive conc. 10 mM, […]) turn out when `[Ca+2].[Cl-].[Cl-]` [CaCl2] was run?
A: 82%

Q: With `[Cl][Cd][Cl]` [CdCl2] as the molecule, how does the “Relative Activity” value ([1]; additive conc. 10 mM, […]) read?
A: 44%

Q: `[Cl-].[Cl-].[Co+2]` [CoCl2] was tested. Which “Relative Activity” value [1] did it give?
A: 35%

Q: Which “Relative Activity” value [1, 4] does the source give for `[Cl][Cu][Cl]` [CuCl2] here?
A: 3%

Q: For `O=C(O)CN(CCN(CC(=O)O)CC(=O)O)CC(=O)O` [EDTA], which “Relative Activity” value [1, 4] is on record?
A: 18%

Q: `CC(=O)N[C@H]1C(O)O[C@H](CO)[C@@H](O[C@@H]2O[C@H](CO)[C@H](O)[C@H](O)[C@H]2O)[C@@H]1O` (stereo partly shown) [Galβ-4GlcNAc] was tested. Which “Rel. Activity” value ([1]; recombinant transferase) did it give?
A: 0%

Q: For `[Cl-].[Cl-].[Mg+2]` [MgCl2], which “Relative Activity” value [1, 4] is on record?
A: 52%

Q: `[Cl][Mn][Cl]` [MnCl2] was tested. Which “Relative Activity” value ([1]; additive conc. 10 mM, […]) did it give?
A: 100%

Q: And the “effect of addition of bivalent cations on activity of the recombinant transferase” value ([1]; result in words)?
A: enhances the activity

Q: Which “Relative Activity” value ([1]; additive conc. 10 mM, […]) does the source give for `[Cl][Ni][Cl]` [NiCl2] here?
A: 24%

Q: How did the “Relative Activity” value [1, 4] turn out when `[Cl-].[Cl-].[Zn+2]` [ZnCl2] was run?
A: 0.6%

Q: Which “Rel. Activity” value ([1]; recombinant transferase) does the source give for Galβ1-3GlcNAc here?
A: 0%

Q: For Galβ1-3GlcNAcβ1-3Galβ1-4Glc, which “Rel. Activity” value ([1]; recombinant transferase) is on record?
A: 0%

Q: “GlcNAcβ1-2Manα1-3(GlcNAcβ1-2Manα1-6)Manβ1-4GlcNAcβ1-4(Fucα1-6)GlcNAcβ1-Asn [GnGnF^6-peptide]” was tested. Which Km [1] did it give?
A: 130 µM

Q: What about the “Rel. Activity” value ([1]; recombinant transferase) of the same molecule?
A: 87%

Q: Which Km [1] does the source give for “GlcNAcβ1-2Manα1-3(GlcNAβ1-2Manα1-6)Manβ1-4GlcNAcβ1-4GlcNAcβ1-Asn [GnGn-peptide]” here?
A: 190 µM

Q: What about the “Rel. Activity” value ([1]; recombinant transferase) of the same molecule?
A: 100%

Q: With “GlcNAcβ1-2Manα1-3[Manα1-3(Manα1-6)Manα1-6]Manβ1-4GlcNAcβ1-4GlcNAcβ1-Asn [M5Gn-Asn]” as the molecule, how does the Km [1] read?
A: 230 µM

Q: And the “Rel. Activity” value ([1]; recombinant transferase)?
A: 71%

B1: recombinant GlcNAc-α1,3-fucosyl transferase (Vigna radiata var. radiata) (protein)
chain: MMGLLTNLRGSRTDGAQQDSLPVLAPGGNPKRKWSNLMPLVVALVVIAEIAFLGRLDMAKNAAMVDSLADFFYRSRAVVEGDDLGLGLVASDRNSESYSCEEWLEREDAVTYSRGFSKEPIFVSGADQEWKSCSVGCKFGFSGDRKPDAAFGLPQPSGTASILRSMESAEYYAENNIAMARRRGYNIVMTTSLSSDVPVGYFSWAEYDMMAPVQPKTEAALAAAFISNCGARNFRLQALEALEKSNIKIDSYGGCHRNRDGRVNKVEALKHYKFSLAFENSNEEDYVTEKFFQSLVAGTVPVVVGAPNIQDFAPSPGSILHIKEIEDVESVAKTMRYLAENPEAYNQSLRWKYEGPSDSFKALVDMAAVHSSCRLCIHLATVSREKEENNPSLKRRPCKCTRGPETVYHIYVRERGRFEMESIYLRSSNLTLNAVKAAVVLKFTSLNLVPVWKTERPEVIRGGSALKLYKIYPIGLTQRQALYTFSFKGDADFRSHLENNPCAKFEVIFV
Q: B1 was tested. Which “enzyme activity of the cotransfected cells and their supernatant relative to negative controls” value ([2]; Sf21 insect cells, homogenate and supernatant, at best) did it give?
A: ≤ 30 ×

Q: What about the “increase in the GlcNAc-α1,3-fucosyl transferase coming from the recombinant baculoviruses” value ([2]; corrected for endogenous insect α1,6-fucosyl transferase activity) of the same molecule?
A: > 100 -fold

Q: What about the Km [3] of the same molecule?
A: 110 µM
